Test results published in the CheMixHub viscosity set.

Experiment: xn = mol fraction of the nth substance listed

CCCOCCO + CCCCCO
298.15 K, 101.33 kPa
Settings | viscosity [mPa·s]
x1 = 0.0215 | 3.463
x1 = 0.0339 | 3.418
x1 = 0.0569 | 3.355
x1 = 0.0878 | 3.254
x1 = 0.1148 | 3.179
x1 = 0.1461 | 3.103
x1 = 0.1776 | 3.025
x1 = 0.2194 | 2.928
x1 = 0.2669 | 2.847
x1 = 0.327 | 2.776
x1 = 0.3773 | 2.72
x1 = 0.4289 | 2.667
x1 = 0.4842 | 2.61
x1 = 0.4911 | 2.608
x1 = 0.5387 | 2.574
x1 = 0.5721 | 2.548
x1 = 0.61 | 2.524
x1 = 0.6569 | 2.493
x1 = 0.7066 | 2.458
x1 = 0.7368 | 2.441
x1 = 0.7698 | 2.426
x1 = 0.8114 | 2.404
x1 = 0.8483 | 2.389
x1 = 0.8888 | 2.374
x1 = 0.9244 | 2.363
x1 = 0.963 | 2.353
x2 = 0.0102 | 2.35

N#Cc1ccccc1 + CCCCCO
viscosity [mPa·s], 101.33 kPa
Settings | x1 = 0.1034 | x1 = 0.1623 | x1 = 0.3038 | x1 = 0.387 | x1 = 0.5033 | x1 = 0.6086 | x1 = 0.7205 | x1 = 0.82 | x1 = 0.9162
303.15 K | 2.395 | 2.152 | 1.737 | 1.558 | 1.374 | 1.262 | 1.182 | 1.153 | 1.14
308.15 K | 2.116 | 1.925 | 1.565 | 1.406 | 1.244 | 1.162 | 1.097 | 1.079 | 1.064
313.15 K | 1.895 | 1.723 | 1.412 | 1.283 | 1.14 | 1.07 | 1.017 | 1.01 | 0.993

CCCCn1cc[n+](C)c1.[Cl-] + CO
101 kPa
Settings | viscosity [mPa·s]
293.15 K, x2 = 0.5001 | 65.2
293.15 K, x2 = 0.7002 | 8.41
298.15 K, x2 = 0.7015 | 7.51
308.15 K, x2 = 0.7001 | 6.61

N[C@@H](CCC(=O)O)C(=O)O + O
viscosity [mPa·s], 101.3 kPa
Settings | x1 = 0.000207 | x1 = 0.00038 | x1 = 0.00043 | x1 = 0.000542 | x1 = 0.000801 | x1 = 0.000855 | x1 = 0.0012
293.15 K | 1.004 | 1.012 | 1.007 | 1.011 | 1.021 | 1.019 | 1.027
298.15 K | 0.8955 | 0.9049 | 0.8994 | 0.9025 | 0.9086 | 0.9109 | 0.9194
303.15 K | 0.8079 | 0.8164 | 0.8109 | 0.8148 | 0.8178 | 0.8217 | 0.8279
313.15 K | 0.6741 | 0.6803 | 0.6764 | 0.6779 | 0.6818 | 0.6849 | 0.6903
323.15 K | 0.5787 | 0.5857 | 0.581 | 0.5826 | 0.5849 | 0.5864 | 0.5895

N#Cc1ccccc1 + Cc1ccccc1
viscosity [mPa·s], 100 kPa
Settings | x1 = 0.1034 | x1 = 0.2113 | x1 = 0.3332 | x1 = 0.409 | x1 = 0.5093 | x1 = 0.6337 | x1 = 0.7569 | x1 = 0.879
303 K | 0.5391 | 0.5612 | 0.6226 | 0.6592 | 0.7016 | 0.7812 | 0.8795 | 0.9682
308 K | 0.5099 | 0.5348 | 0.6121 | 0.6589 | 0.7285 | 0.7989 | 0.8621 | 0.9325
313 K | 0.5068 | 0.5399 | 0.5908 | 0.6325 | 0.6985 | 0.7545 | 0.8319 | 0.8819

CCC(=O)OC + c1ccccc1
viscosity [mPa·s]
Settings | 298.15 K | 308.15 K | 313.15 K | 318.15 K
101 kPa, x2 = 0.1014 | 0.435 | – | 0.373 | –
101 kPa, x2 = 0.1972 | 0.444 | – | 0.38 | –
101 kPa, x2 = 0.3002 | 0.453 | – | 0.387 | –
101 kPa, x2 = 0.3996 | 0.466 | – | 0.397 | –
101 kPa, x2 = 0.5012 | 0.48 | – | 0.407 | –
101 kPa, x2 = 0.6036 | 0.496 | – | 0.419 | –
101 kPa, x2 = 0.6961 | 0.513 | – | 0.43 | –
101 kPa, x2 = 0.8009 | 0.536 | – | 0.447 | –
101 kPa, x2 = 0.898 | 0.561 | – | 0.465 | –
101.3 kPa, x1 = 0.0415 | – | 0.53 | – | 0.466
101.3 kPa, x1 = 0.1037 | – | 0.52 | – | 0.461
101.3 kPa, x1 = 0.2041 | – | 0.505 | – | 0.453
101.3 kPa, x1 = 0.3026 | – | 0.492 | – | 0.446
101.3 kPa, x1 = 0.4053 | – | 0.48 | – | 0.44
101.3 kPa, x1 = 0.4569 | – | 0.474 | – | 0.437
101.3 kPa, x1 = 0.6013 | – | 0.462 | – | 0.43
101.3 kPa, x1 = 0.7026 | – | 0.453 | – | 0.425
101.3 kPa, x1 = 0.8018 | – | 0.447 | – | 0.43
101.3 kPa, x1 = 0.9039 | – | 0.441 | – | 0.418
101.3 kPa, x1 = 0.9674 | – | 0.438 | – | 0.417

NNc1ccccc1 + Oc1ccccc1Cl
323.1 K, 101 kPa
Settings | viscosity [mPa·s]
x1 = 0.1706 | 3.51
x1 = 0.401 | 7.16
x1 = 0.508 | 8.27
x1 = 0.536 | 8.18
x1 = 0.781 | 6.955

CCCOCCO + OCCOCCOCCO
101 kPa
Settings | viscosity [mPa·s]
293.15 K, x1 = 0.0477 | 37.18
293.15 K, x1 = 0.1028 | 32.98
293.15 K, x1 = 0.2026 | 26.12
293.15 K, x1 = 0.3116 | 19.86
293.15 K, x1 = 0.397 | 15.84
293.15 K, x1 = 0.4561 | 13.47
293.15 K, x1 = 0.4963 | 12.06
293.15 K, x1 = 0.549 | 10.39
293.15 K, x1 = 0.5885 | 9.266
293.15 K, x1 = 0.6941 | 6.794
293.15 K, x1 = 0.8011 | 4.892
293.15 K, x1 = 0.9015 | 3.544
293.15 K, x1 = 0.9316 | 3.208
298.15 K, x1 = 0.0552 | 30.77
298.15 K, x1 = 0.1173 | 26.96
298.15 K, x1 = 0.2033 | 22.23
298.15 K, x1 = 0.3039 | 17.54
298.15 K, x1 = 0.4049 | 13.68
298.15 K, x1 = 0.4555 | 12.02
298.15 K, x1 = 0.5186 | 10.2
298.15 K, x1 = 0.5413 | 9.595
298.15 K, x1 = 0.591 | 8.373
298.15 K, x1 = 0.6905 | 6.309
298.15 K, x1 = 0.7968 | 4.592
298.15 K, x1 = 0.8962 | 3.38
298.15 K, x1 = 0.9323 | 3.003
303.15 K, x1 = 0.0529 | 26.52
303.15 K, x1 = 0.1142 | 23.47
303.15 K, x1 = 0.2041 | 19.36
303.15 K, x1 = 0.2979 | 15.66
303.15 K, x1 = 0.4027 | 12.28
303.15 K, x1 = 0.4522 | 10.91
303.15 K, x1 = 0.4952 | 9.838
303.15 K, x1 = 0.5507 | 8.582
303.15 K, x1 = 0.5939 | 7.697
303.15 K, x1 = 0.6941 | 5.899
303.15 K, x1 = 0.7987 | 4.346
303.15 K, x1 = 0.9027 | 3.083
303.15 K, x1 = 0.9431 | 2.664

CC(=O)CCc1ccccc1 + CCCCCOC(C)=O
298.15 K, 101 kPa
Settings | viscosity [mPa·s]
x1 = 0.0322 | 0.8102
x1 = 0.0702 | 0.8323

C[N+](C)(C)C.NCC(=O)[O-] + OCCO
303 K, 101 kPa
Settings | viscosity [mPa·s]
x1 = 0.044 | 46.5
x1 = 0.095 | 75.2
x1 = 0.15 | 103.9
x1 = 0.22 | 138
x1 = 0.39 | 185.9
x1 = 0.63 | 251.5

CCC(=O)OC + CCCCCCC
viscosity [mPa·s], 101.3 kPa
Settings | 308.15 K | 318.15 K
x1 = 0.0447 | 0.354 | 0.322
x1 = 0.1083 | 0.355 | 0.326
x1 = 0.1932 | 0.358 | 0.332
x1 = 0.3018 | 0.362 | 0.34
x1 = 0.4146 | 0.369 | 0.349
x1 = 0.5227 | 0.377 | 0.359
x1 = 0.5693 | 0.381 | 0.363
x1 = 0.7002 | 0.395 | 0.377
x1 = 0.7986 | 0.407 | 0.389
x1 = 0.9016 | 0.421 | 0.402
x1 = 0.9509 | 0.429 | 0.409

C[C@H]1CCCC[C@H]1O + C[C@@H]1CCCC[C@H]1O
viscosity [mPa·s], 101 kPa
Settings | x1 = 0.199 | x1 = 0.302 | x1 = 0.399 | x1 = 0.598 | x1 = 0.691 | x1 = 0.798
298.15 K | 29.88 | 27.1 | 24.51 | 20.97 | 19.75 | 18.87
303.15 K | 20.72 | 19.03 | 17.37 | 15.25 | 14.51 | 13.97

N#Cc1ccccc1 + OCc1ccccc1
303.15 K, 101 kPa
Settings | viscosity [mPa·s]
x2 = 0.146 | 1.123
x2 = 0.276 | 1.263
x2 = 0.3251 | 1.366
x2 = 0.4147 | 1.535
x2 = 0.5549 | 1.902
x2 = 0.6387 | 2.184
x2 = 0.7443 | 2.635
x2 = 0.8022 | 2.942
x2 = 0.9039 | 3.595

CCC(=O)OC + ClC(Cl)C(Cl)Cl
viscosity [mPa·s], 101.3 kPa
Settings | 308.15 K | 318.15 K
x1 = 0.0501 | 1.352 | 1.214
x1 = 0.1021 | 1.296 | 1.149
x1 = 0.2031 | 1.186 | 1.032
x1 = 0.302 | 1.078 | 0.927
x1 = 0.3398 | 1.037 | 0.889
x1 = 0.5038 | 0.865 | 0.741
x1 = 0.6012 | 0.769 | 0.664
x1 = 0.6946 | 0.681 | 0.597
x1 = 0.7988 | 0.591 | 0.528
x1 = 0.9016 | 0.509 | 0.468
x1 = 0.9481 | 0.474 | 0.443

N[C@@H](Cc1ccc(O)cc1)C(=O)O + O
303 K, 100 kPa
Settings | viscosity [mPa·s]
x1 = 0.00933 | 0.8931
x1 = 0.00952 | 0.911
x1 = 0.00967 | 0.9501
x1 = 0.00975 | 0.9616
x1 = 0.0098 | 0.9874
x1 = 0.00983 | 1

CC[N+](CC)(CC)CC.[I-] + O
viscosity [mPa·s], 101 kPa
Settings | x1 = 0.0005 | x1 = 0.0009 | x1 = 0.0018 | x1 = 0.0027 | x1 = 0.0036
293.15 K | 1.004 | 1.018 | 1.037 | 1.051 | 1.074
298.15 K | 0.893 | 0.902 | 0.916 | 0.931 | 0.943
303.15 K | 0.826 | 0.835 | 0.846 | 0.859 | 0.872
308.15 K | 0.697 | 0.703 | 0.713 | 0.723 | 0.733
